Consider 32 molecules from patent US11964953B2, “Substituted aminothiazoles as DGKzeta inhibitors for immune activation” (Bayer Aktiengesellschaft, priority 2020, dated 2024).

Where only a bound is given, the exact number is not on record here.

Chain of human DGKζ (Q13574 other isoform, or with tags, fused parts or gaps): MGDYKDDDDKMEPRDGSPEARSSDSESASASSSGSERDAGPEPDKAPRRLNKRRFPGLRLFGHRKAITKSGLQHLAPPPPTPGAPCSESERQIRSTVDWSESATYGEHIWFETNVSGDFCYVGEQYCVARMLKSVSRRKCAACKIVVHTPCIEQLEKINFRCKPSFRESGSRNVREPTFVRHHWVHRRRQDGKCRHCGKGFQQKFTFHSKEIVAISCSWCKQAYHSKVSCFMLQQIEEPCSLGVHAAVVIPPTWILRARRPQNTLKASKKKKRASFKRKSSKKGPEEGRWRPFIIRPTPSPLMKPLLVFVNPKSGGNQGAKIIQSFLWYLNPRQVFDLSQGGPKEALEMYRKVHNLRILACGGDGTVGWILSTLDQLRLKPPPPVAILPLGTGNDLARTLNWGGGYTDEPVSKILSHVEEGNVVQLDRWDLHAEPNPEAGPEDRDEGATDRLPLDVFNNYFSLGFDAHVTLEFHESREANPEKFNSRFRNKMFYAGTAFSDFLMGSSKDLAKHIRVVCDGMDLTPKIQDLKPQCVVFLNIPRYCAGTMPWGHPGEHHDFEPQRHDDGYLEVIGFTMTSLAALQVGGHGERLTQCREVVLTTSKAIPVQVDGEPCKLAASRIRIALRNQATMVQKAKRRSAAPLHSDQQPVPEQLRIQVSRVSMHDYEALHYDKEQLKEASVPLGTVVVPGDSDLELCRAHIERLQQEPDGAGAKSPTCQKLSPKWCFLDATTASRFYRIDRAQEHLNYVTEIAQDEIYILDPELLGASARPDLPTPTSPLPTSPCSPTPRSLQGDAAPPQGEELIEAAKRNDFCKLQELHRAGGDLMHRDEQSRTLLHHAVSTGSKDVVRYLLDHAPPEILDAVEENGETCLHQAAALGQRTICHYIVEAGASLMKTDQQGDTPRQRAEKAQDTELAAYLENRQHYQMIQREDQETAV

The test deals with human DGKζ (Homo sapiens (Human), UniProt Q13574). Briefly: Human DGKζ kinase activity inhibition assay (ADP-Glo). The test is classed as biochemical. The conditions noted are these: in vitro human DGKζ kinase activity inhibition assay; read-out: IC50. In a few lines:
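ADP-Glo luminescence, reflecting ADP produced, served as the readout of activity. Full-length human DGKζ, FLAG-tagged at the C-terminus and insect-cell expressed, was used; lipid substrate mix was sonicated with octyl-β-D-glucopyranoside in 50 mM MOPS pH 7.4.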
`CC(C(N)=O)N(c1ccc(F)cc1)c1nc(N)c(C(=O)c2ccc(OC(F)F)cc2)s1` (single isomer, unassigned) [Example 44.2, 2-(N-[4-amino-5-[4-(difluoromethoxy)benzoyl]thiazol-2-yl]-4-fluoro-anilino)propanamide]: the concentration for half-maximal inhibition (IC50) (as a rule, the concentration at which inhibition is half-maximal) turned out to be 6.72 nM.
For `CC(Oc1ccc(C(=O)c2sc(N(c3ccccc3)C(C)C(N)=O)nc2N)cc1)C(N)=O` (single isomer, unassigned) [Example 45.1, 2-(N-[4-amino-5-[4-[2-amino-1-methyl-2-oxo-ethoxy]benzoyl]thiazol-2-yl]anilino)propanamide] the value was 201 nM; for `CC(Oc1ccc(C(=O)c2sc(N(c3ccccc3)C(C)C(N)=O)nc2N)cc1)C(N)=O` (single isomer, unassigned) [Example 45.2, 2-(N-[4-amino-5-[4-[2-amino-1-methyl-2-oxo-ethoxy]benzoyl]thiazol-2-yl]anilino)propanamide], 8910 nM; for `CC(Oc1ccc(C(=O)c2sc(N(c3ccccc3)C(C)C(N)=O)nc2N)cc1)C(N)=O` (single isomer, unassigned) [Example 45.3, 2-(N-[4-amino-5-[4-[2-amino-1-methyl-2-oxo-ethoxy]benzoyl]thiazol-2-yl]anilino)propanamide], 1050 nM.
For the molecule `CC(Oc1ccc(C(=O)c2sc(N(c3ccccc3)C(C)C(N)=O)nc2N)cc1)C(N)=O` (single isomer, unassigned) [Example 45.4, 2-(N-[4-amino-5-[4-[2-amino-1-methyl-2-oxo-ethoxy]benzoyl]thiazol-2-yl]anilino)propanamide], the IC50 was greater than 20000 nM.
On to `CC(C(N)=O)N(c1nc(N)c(C(=O)c2ccc(OC(F)F)cc2)s1)c1ccc(Cl)cc1F` (single isomer, unassigned) [Example 46.1, 2-(N-[4-amino-5-[4-(difluoromethoxy)benzoyl]thiazol-2-yl]-4-chloro-2-fluoro-anilino)propanamide], for which the concentration for half-maximal inhibition (IC50) came to 1470 nM.
In the case of `CC(C(N)=O)N(c1nc(N)c(C(=O)c2ccc(OC(F)F)cc2)s1)c1ccc(Cl)cc1F` (single isomer, unassigned) [Example 46.2, 2-(N-[4-amino-5-[4-(difluoromethoxy)benzoyl]thiazol-2-yl]-4-chloro-2-fluoro-anilino)propanamide] it was 5.69 nM; in that of `CC(C(N)=O)N(c1ccc(Cl)cc1)c1nc(N)c(C(=O)c2ccc(OC(F)F)cc2)s1` (single isomer, unassigned) [Example 47.1, 2-(N-[4-amino-5-[4-(difluoromethoxy)benzoyl]thiazol-2-yl]-4-chloro-anilino)propanamide], 1020 nM.
For `CC(C(N)=O)N(c1ccc(Cl)cc1)c1nc(N)c(C(=O)c2ccc(OC(F)F)cc2)s1` (single isomer, unassigned) [Example 47.2, 2-(N-[4-amino-5-[4-(difluoromethoxy)benzoyl]thiazol-2-yl]-4-chloro-anilino)propanamide] the value was 1.96 nM.
Consider `CC(C(N)=O)N(c1ccc(Cl)c(F)c1)c1nc(N)c(C(=O)c2ccc(OC(F)F)cc2)s1` (single isomer, unassigned) [Example 48.1, 2-(N-[4-amino-5-[4-(difluoromethoxy)benzoyl]thiazol-2-yl]-4-chloro-3-fluoro-anilino)propanamide], for which the IC50 came out at 1.76 nM.
For `CC(C(N)=O)N(c1ccc(Cl)c(F)c1)c1nc(N)c(C(=O)c2ccc(OC(F)F)cc2)s1` (single isomer, unassigned) [Example 48.2, 2-(N-[4-amino-5-[4-(difluoromethoxy)benzoyl]thiazol-2-yl]-4-chloro-3-fluoro-anilino)propanamide] the value was 120 nM; for `CC(C(N)=O)N(c1ccc(F)c(F)c1)c1nc(N)c(C(=O)c2ccncc2)s1` (single isomer, unassigned) [Example 50.1, 2-(N-[4-amino-5-(pyridine-4-carbonyl)thiazol-2-yl]-3,4-difluoro-anilino)propanamide], 127 nM.
As to `CC(C(N)=O)N(c1ccc(F)c(F)c1)c1nc(N)c(C(=O)c2ccncc2)s1` (single isomer, unassigned) [Example 50.2, 2-(N-[4-amino-5-(pyridine-4-carbonyl)thiazol-2-yl]-3,4-difluoro-anilino)propanamide], the IC50 is 14300 nM.
For `COc1ccc(C(=O)c2sc(N(c3ccc(F)c(F)c3)C(C)C(N)=O)nc2N)cn1` (single isomer, unassigned) [Example 52.1, 2-(N-[4-amino-5-(6-methoxypyridine-3-carbonyl)thiazol-2-yl]-3,4-difluoro-anilino)propanamide], the IC50 was determined as 72.7 nM.
On to `COc1ccc(C(=O)c2sc(N(c3ccc(F)c(F)c3)C(C)C(N)=O)nc2N)cn1` (single isomer, unassigned) [Example 52.2, 2-(N-[4-amino-5-(6-methoxypyridine-3-carbonyl)thiazol-2-yl]-3,4-difluoro-anilino)propanamide], for which the 50% inhibitory concentration (IC50) stood at 11400 nM.
Consider `CC(C(N)=O)N(c1ccc(F)c(F)c1)c1nc(N)c(C(=O)c2ccc(C(F)(F)F)nc2)s1` (single isomer, unassigned) [Example 53.1, 2-(N-[4-amino-5-[6-(trifluoromethyl)pyridine-3-carbonyl]thiazol-2-yl]-3,4-difluoro-anilino)propanamide], for which the concentration for half-maximal inhibition (IC50) was determined as 20.3 nM.
For `CC(C(N)=O)N(c1ccc(F)c(F)c1)c1nc(N)c(C(=O)c2ccc(C(F)(F)F)nc2)s1` (single isomer, unassigned) [Example 53.2, 2-(N-[4-amino-5-[6-(trifluoromethyl)pyridine-3-carbonyl]thiazol-2-yl]-3,4-difluoro-anilino)propanamide] the value was 1780 nM; for `Cc1nc(N(c2ccc(F)c(F)c2)C(C)C(N)=O)sc1C(=O)c1ccc(OC(F)F)cc1` (single isomer, unassigned) [Example 55.1, 2-(N-[5-[4-(difluoromethoxy)benzoyl]-4-methyl-thiazol-2-yl]-3,4-difluoro-anilino)propanamide], 6 nM; for `Cc1nc(N(c2ccc(F)c(F)c2)C(C)C(N)=O)sc1C(=O)c1ccc(OC(F)F)cc1` (single isomer, unassigned) [Example 55.2, 2-(N-[5-[4-(difluoromethoxy)benzoyl]-4-methyl-thiazol-2-yl]-3,4-difluoro-anilino)propanamide], 835 nM.
For `CC(C(N)=O)N(c1ccc(Cl)c(F)c1)c1nc(N)c(C(=O)c2ccncc2)s1` (single isomer, unassigned) [Example 56.1, 2-(N-[4-amino-5-(pyridine-4-carbonyl)thiazol-2-yl]-4-chloro-3-fluoro-anilino)propanamide] the value was 50.5 nM.
As for `CC(C(N)=O)N(c1ccc(Cl)cc1)c1nc(N)c(C(=O)c2ccncc2)s1` (single isomer, unassigned) [Example 57.1, 2-(N-[4-amino-5-(pyridine-4-carbonyl)thiazol-2-yl]-4-chloro-anilino)propanamide], the IC50 was 137 nM.
As to `CC(C(N)=O)N(c1ccc(Cl)cc1)c1nc(N)c(C(=O)c2ccncc2)s1` (single isomer, unassigned) [Example 57.2, 2-(N-[4-amino-5-(pyridine-4-carbonyl)thiazol-2-yl]-4-chloro-anilino)propanamide], the IC50 was found to be 14600 nM.
On to `COc1ccc(C(=O)c2sc(N(c3ccc(Cl)cc3)C(C)C(N)=O)nc2N)cc1` (single isomer, unassigned) [Example 58.1, 2-(N-[4-amino-5-(4-methoxybenzoyl)thiazol-2-yl]-4-chloro-anilino)propanamide], for which the concentration for half-maximal inhibition (IC50) came to 8 nM.
In the case of `COc1ccc(C(=O)c2sc(N(c3ccc(Cl)cc3)C(C)C(N)=O)nc2N)cc1` (single isomer, unassigned) [Example 58.2, 2-(N-[4-amino-5-(4-methoxybenzoyl)thiazol-2-yl]-4-chloro-anilino)propanamide] it was 1050 nM; in that of `COc1ccc(C(=O)c2sc(N(c3ccc(Cl)c(F)c3)C(C)C(N)=O)nc2N)cc1` (single isomer, unassigned) [Example 59.2, 2-(N-[4-amino-5-(4-methoxybenzoyl)thiazol-2-yl]-4-chloro-3-fluoro-anilino)propanamide], 424 nM; in that of `CC(C(N)=O)N(c1ccc(F)cc1)c1nc(N)c(C(=O)c2ccccc2)s1` (single isomer, unassigned) [Example 61.1, 2-(N-(4-amino-5-benzoyl-thiazol-2-yl)-4-fluoro-anilino)propanamide], 5180 nM.
In the case of `Cc1ccc(C(=O)c2sc(N(c3ccc(F)cc3)C(C)C(N)=O)nc2N)cc1` (single isomer, unassigned) [Example 63.1, 2-(N-[4-amino-5-(4-methylbenzoyl)thiazol-2-yl]-4-fluoro-anilino)propanamide] it was 5170 nM.
For `Cc1ccc(C(=O)c2sc(N(c3ccc(F)cc3)C(C)C(N)=O)nc2N)cc1` (single isomer, unassigned) [Example 63.2, 2-(N-[4-amino-5-(4-methylbenzoyl)thiazol-2-yl]-4-fluoro-anilino)propanamide] the value was 18.5 nM.
In the case of `Cc1ccc(N(c2nc(N)c(C(=O)c3ccccc3)s2)C(C)C(N)=O)cc1` (single isomer, unassigned) [Example 73.1, 2-(N-(4-amino-5-benzoyl-thiazol-2-yl)-4-methyl-anilino)propanamide], the IC50 came out at 3720 nM.
Regarding `Cc1ccc(N(c2nc(N)c(C(=O)c3ccccc3)s2)C(C)C(N)=O)cc1` (single isomer, unassigned) [Example 73.2, 2-(N-(4-amino-5-benzoyl-thiazol-2-yl)-4-methyl-anilino)propanamide], the IC50 is 82.1 nM.
In the case of `CC(C(N)=O)N(c1cccc(F)c1)c1nc(N)c(C(=O)c2ccccc2)s1` (single isomer, unassigned) [Example 74.1, 2-(N-(4-amino-5-benzoyl-thiazol-2-yl)-3-fluoro-anilino)propanamide] it was 17100 nM; in that of `CC(C(N)=O)N(c1nc(N)c(C(=O)c2ccccc2)s1)c1ccccc1F` (single isomer, unassigned) [Example 75.1, 2-(N-(4-amino-5-benzoyl-thiazol-2-yl)-2-fluoro-anilino)propanamide], greater than 20000 nM.
